What was measured:
Experiment in all cases: Zone of inhibition screen, 96 well agar array format
Type in all cases: cell-based
Set-up in all cases: scale not given here
[1] = tested on: S. aureus (ATCC 29213)
Outline: (§1)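 Read-out is antibacterial activity on agar laid out as a 96-well array; every compound went through all strains of the panel.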

[2] = tested on: E. faecalis (CL 4877)
Outline: as §1

[3] = tested on: S. epidermidis (ATCC 12228)
Outline: as §1

[4] = zone of inhibition relative to 1 mg/ml stock solution of p-chlorobiphenylvancomycin
[5] = zone of inhibition relative to 1 mg/ml p-chlorobiphenylvancomycin

CC1OC(OC2C(Oc3c4cc5cc3Oc3ccc(cc3Cl)C(O)C3NC(=O)C(NC(=O)C5NC(=O)C(CC(N)=O)NC(=O)C(NC(=O)C(N)CSCCO)C(O)c5ccc(c(Cl)c5)O4)c4ccc(O)c(c4)-c4c(O)cc(O)cc4C(C(=O)O)NC3=O)OC(CO)C(O)C2O)CC(C)(NCc2ccc(-c3ccc(Cl)cc3)cc2)C1O (stereo not drawn) [Compound 48]
2: zone score, S. aureus ATCC 29213 [1, 4] | zone score, E. faecalis CL 4877 [2, 4] | zone score, S. epidermidis ATCC 12228 [3, 4]

CC1OC(OC2C(Oc3c4cc5cc3Oc3ccc(cc3Cl)C(O)C3NC(=O)C(NC(=O)C5NC(=O)C(CC(N)=O)NC(=O)C(NC(=O)C5CC(O)CN5)C(O)c5ccc(c(Cl)c5)O4)c4ccc(O)c(c4)-c4c(O)cc(O)cc4C(C(=O)O)NC3=O)OC(CO)C(O)C2O)CC(C)(NCc2ccc(-c3ccc(Cl)cc3)cc2)C1O (stereo not drawn) [Compound 54]
2: zone score, S. aureus ATCC 29213 [1, 4] | zone score, E. faecalis CL 4877 [2, 4] | zone score, S. epidermidis ATCC 12228 [3, 4]

CC1OC(OC2C(Oc3c4cc5cc3Oc3ccc(cc3Cl)C(O)C3NC(=O)C(NC(=O)C5NC(=O)C(CC(N)=O)NC(=O)C(NC(=O)CC(N)C(N)=O)C(O)c5ccc(c(Cl)c5)O4)c4ccc(O)c(c4)-c4c(O)cc(O)cc4C(C(=O)O)NC3=O)OC(CO)C(O)C2O)CC(C)(NCc2ccc(-c3ccc(Cl)cc3)cc2)C1O (stereo not drawn) [Compound 59]
2: zone score, S. aureus ATCC 29213 [1, 4] | zone score, E. faecalis CL 4877 [2, 4] | zone score, S. epidermidis ATCC 12228 [3, 4]

CC1OC(OC2C(Oc3c4cc5cc3Oc3ccc(cc3Cl)C(O)C3NC(=O)C(NC(=O)C5NC(=O)C(CC(N)=O)NC(=O)C(NC(=O)CCCN)C(O)c5ccc(c(Cl)c5)O4)c4ccc(O)c(c4)-c4c(O)cc(O)cc4C(C(=O)O)NC3=O)OC(CO)C(O)C2O)CC(C)(NCc2ccc(-c3ccc(Cl)cc3)cc2)C1O (stereo not drawn) [Compound 65]
2: zone score, S. aureus ATCC 29213 [1, 4] | zone score, E. faecalis CL 4877 [2, 4] | zone score, S. epidermidis ATCC 12228 [3, 4]

COc1cc(OC)c(CNC(=O)CCC(N)C(=O)NC2C(=O)NC(CC(N)=O)C(=O)NC3C(=O)NC4C(=O)NC(C(=O)NC(C(=O)O)c5cc(O)cc(O)c5-c5cc4ccc5O)C(O)c4ccc(c(Cl)c4)Oc4cc3cc(c4OC3OC(CO)C(O)C(O)C3OC3CC(C)(NCc4ccc(-c5ccc(Cl)cc5)cc4)C(O)C(C)O3)Oc3ccc(cc3Cl)C2O)c(OC)c1 (stereo not drawn) [Compound 66]
2: zone score, S. aureus ATCC 29213 [1, 4] | zone score, E. faecalis CL 4877 [2, 4] | zone score, S. epidermidis ATCC 12228 [3, 4]

CC1OC(OC2C(Oc3c4cc5cc3Oc3ccc(cc3Cl)C(O)C(NC(=O)C3CCCN3C(=O)C3CCCN3)C(=O)NC(CC(N)=O)C(=O)NC5C(=O)NC3C(=O)NC(C(=O)NC(C(=O)O)c5cc(O)cc(O)c5-c5cc3ccc5O)C(O)c3ccc(c(Cl)c3)O4)OC(CO)C(O)C2O)CC(C)(NCc2ccc(-c3ccc(Cl)cc3)cc2)C1O (stereo not drawn) [Compound 86]
2: zone score, S. aureus ATCC 29213 [1, 4] | zone score, E. faecalis CL 4877 [2, 4] | zone score, S. epidermidis ATCC 12228 [3, 4]

CC(=O)OCC(N)C(=O)NC1C(=O)NC(CC(N)=O)C(=O)NC2C(=O)NC3C(=O)NC(C(=O)NC(C(=O)O)c4cc(O)cc(O)c4-c4cc3ccc4O)C(O)c3ccc(c(Cl)c3)Oc3cc2cc(c3OC2OC(CO)C(O)C(O)C2OC2CC(C)(NCc3ccc(-c4ccc(Cl)cc4)cc3)C(O)C(C)O2)Oc2ccc(cc2Cl)C1O (stereo not drawn) [Compound 87]
2: zone score, S. aureus ATCC 29213 [1, 4] | zone score, E. faecalis CL 4877 [2, 4] | zone score, S. epidermidis ATCC 12228 [3, 4]

CC1OC(OC2C(Oc3c4cc5cc3Oc3ccc(cc3Cl)C(O)C3NC(=O)C(NC(=O)C5NC(=O)C(CC(N)=O)NC(=O)C(NC(=O)CC[S+](C)C)C(O)c5ccc(c(Cl)c5)O4)c4ccc(O)c(c4)-c4c(O)cc(O)cc4C(C(=O)O)NC3=O)OC(CO)C(O)C2O)CC(C)(NCc2ccc(-c3ccc(Cl)cc3)cc2)C1O (stereo not drawn) [Compound 94]
2: zone score, S. aureus ATCC 29213 [1, 4] | zone score, E. faecalis CL 4877 [2, 4] | zone score, S. epidermidis ATCC 12228 [3, 4]

CC1OC(OC2C(Oc3c4cc5cc3Oc3ccc(cc3Cl)C(O)C3NC(=O)C(NC(=O)C5NC(=O)C(CC(N)=O)NC(=O)C(NC(=O)CCO)C(O)c5ccc(c(Cl)c5)O4)c4ccc(O)c(c4)-c4c(O)cc(O)cc4C(C(=O)O)NC3=O)OC(CO)C(O)C2O)CC(C)(NCc2ccc(-c3ccc(Cl)cc3)cc2)C1O (stereo not drawn) [Compound 106]
2: zone score, S. aureus ATCC 29213 [1, 4] | zone score, E. faecalis CL 4877 [2, 4] | zone score, S. epidermidis ATCC 12228 [3, 4]

CC(=O)N1CCCC1C(=O)NC1C(=O)NC(CC(N)=O)C(=O)NC2C(=O)NC3C(=O)NC(C(=O)NC(C(=O)O)c4cc(O)cc(O)c4-c4cc3ccc4O)C(O)c3ccc(c(Cl)c3)Oc3cc2cc(c3OC2OC(CO)C(O)C(O)C2OC2CC(C)(NCc3ccc(-c4ccc(Cl)cc4)cc3)C(O)C(C)O2)Oc2ccc(cc2Cl)C1O (stereo not drawn) [Compound 116]
2: zone score, S. aureus ATCC 29213 [1, 4] | zone score, E. faecalis CL 4877 [2, 4] | zone score, S. epidermidis ATCC 12228 [3, 4]

CC(=O)OC(CC(=O)NC1C(=O)NC(CC(N)=O)C(=O)NC2C(=O)NC3C(=O)NC(C(=O)NC(C(=O)O)c4cc(O)cc(O)c4-c4cc3ccc4O)C(O)c3ccc(c(Cl)c3)Oc3cc2cc(c3OC2OC(CO)C(O)C(O)C2OC2CC(C)(NCc3ccc(-c4ccc(Cl)cc4)cc3)C(O)C(C)O2)Oc2ccc(cc2Cl)C1O)C[N+](C)(C)C (stereo not drawn) [Compound 119]
2: zone score, S. aureus ATCC 29213 [1, 4] | zone score, E. faecalis CL 4877 [2, 4] | zone score, S. epidermidis ATCC 12228 [3, 4]

CC(=O)NCC(=O)NCC(=O)NC1C(=O)NC(CC(N)=O)C(=O)NC2C(=O)NC3C(=O)NC(C(=O)NC(C(=O)O)c4cc(O)cc(O)c4-c4cc3ccc4O)C(O)c3ccc(c(Cl)c3)Oc3cc2cc(c3OC2OC(CO)C(O)C(O)C2OC2CC(C)(NCc3ccc(-c4ccc(Cl)cc4)cc3)C(O)C(C)O2)Oc2ccc(cc2Cl)C1O (stereo not drawn) [Compound 120]
2: zone score, S. aureus ATCC 29213 [1, 4] | zone score, E. faecalis CL 4877 [2, 4] | zone score, S. epidermidis ATCC 12228 [3, 4]

CC1OC(OC2C(Oc3c4cc5cc3Oc3ccc(cc3Cl)C(O)C3NC(=O)C(NC(=O)C5NC(=O)C(CC(N)=O)NC(=O)C(NC(=O)CO)C(O)c5ccc(c(Cl)c5)O4)c4ccc(O)c(c4)-c4c(O)cc(O)cc4C(C(=O)O)NC3=O)OC(CO)C(O)C2O)CC(C)(NCc2ccc(-c3ccc(Cl)cc3)cc2)C1O (stereo not drawn) [Compound 158]
2: zone score, S. aureus ATCC 29213 [1, 4] | zone score, E. faecalis CL 4877 [2, 4] | zone score, S. epidermidis ATCC 12228 [3, 4]

CC(=O)N[C@@H](Cc1c[nH]cn1)C(=O)N[C@H]1C(=O)N[C@@H](CC(N)=O)C(=O)N[C@H]2C(=O)NC3C(=O)N[C@H](C(=O)N[C@@H](C(=O)O)c4cc(O)cc(O)c4-c4cc3ccc4O)[C@H](O)c3ccc(c(Cl)c3)Oc3cc2cc(c3OC2OC(CO)C(O)C(O)C2OC2CC(C)(NCc3ccc(-c4ccc(Cl)cc4)cc3)C(O)C(C)O2)Oc2ccc(cc2Cl)[C@H]1O (stereo partly drawn) [Compound 181]
2: zone score, S. aureus ATCC 29213 [1, 4] | zone score, E. faecalis CL 4877 [2, 4] | zone score, S. epidermidis ATCC 12228 [3, 4]

CC(=O)N1CCC[C@H]1C(=O)N[C@H]1C(=O)N[C@@H](CC(N)=O)C(=O)N[C@H]2C(=O)NC3C(=O)N[C@H](C(=O)N[C@@H](C(=O)O)c4cc(O)cc(O)c4-c4cc3ccc4O)[C@H](O)c3ccc(c(Cl)c3)Oc3cc2cc(c3OC2OC(CO)C(O)C(O)C2OC2CC(C)(NCc3ccc(-c4ccc(Cl)cc4)cc3)C(O)C(C)O2)Oc2ccc(cc2Cl)[C@H]1O (stereo partly drawn) [Compound 183]
2: zone score, S. aureus ATCC 29213 [1, 4] | zone score, E. faecalis CL 4877 [2, 4] | zone score, S. epidermidis ATCC 12228 [3, 4]

CC1OC(OC2C(Oc3c4cc5cc3Oc3ccc(cc3Cl)C(O)C3NC(=O)C(NC(=O)C5NC(=O)C(CC(N)=O)NC(=O)C(NC(=O)C(Cc5c[nH]cn5)NC=O)C(O)c5ccc(c(Cl)c5)O4)c4ccc(O)c(c4)-c4c(O)cc(O)cc4C(C(=O)O)NC3=O)OC(CO)C(O)C2O)CC(C)(NCc2ccc(-c3ccc(Cl)cc3)cc2)C1O (stereo not drawn) [Compound 195]
2: zone score, S. aureus ATCC 29213 [1, 4] | zone score, E. faecalis CL 4877 [2, 4] | zone score, S. epidermidis ATCC 12228 [3, 4]

CC1OC(OC2C(Oc3c4cc5cc3Oc3ccc(cc3Cl)C(O)C3NC(=O)C(NC(=O)C5NC(=O)C(CC(N)=O)NC(=O)C(NC(=O)CCC(N)=O)C(O)c5ccc(c(Cl)c5)O4)c4ccc(O)c(c4)-c4c(O)cc(O)cc4C(C(=O)O)NC3=O)OC(CO)C(O)C2O)CC(C)(NCc2ccc(-c3ccc(Cl)cc3)cc2)C1O (stereo not drawn) [Compound 202]
2: zone score, S. aureus ATCC 29213 [1, 4] | zone score, E. faecalis CL 4877 [2, 4] | zone score, S. epidermidis ATCC 12228 [3, 4]

CC(NC(=O)OCc1ccccc1)C(=O)NCC(=O)NCC(=O)NC1C(=O)NC(CC(N)=O)C(=O)NC2C(=O)NC3C(=O)NC(C(=O)NC(C(=O)O)c4cc(O)cc(O)c4-c4cc3ccc4O)C(O)c3ccc(c(Cl)c3)Oc3cc2cc(c3OC2OC(CO)C(O)C(O)C2OC2CC(C)(NCc3ccc(-c4ccc(Cl)cc4)cc3)C(O)C(C)O2)Oc2ccc(cc2Cl)C1O (stereo not drawn) [Compound 209]
2: zone score, S. aureus ATCC 29213 [1, 5] | zone score, E. faecalis CL 4877 [2, 5] | zone score, S. epidermidis ATCC 12228 [3, 5]

CC1OC(OC2C(Oc3c4cc5cc3Oc3ccc(cc3Cl)C(O)C3NC(=O)C(NC(=O)C5NC(=O)C(CC(N)=O)NC(=O)C(NC(=O)CNC(=O)CNC(=O)CCNC(=O)OCc5ccccc5)C(O)c5ccc(c(Cl)c5)O4)c4ccc(O)c(c4)-c4c(O)cc(O)cc4C(C(=O)O)NC3=O)OC(CO)C(O)C2O)CC(C)(NCc2ccc(-c3ccc(Cl)cc3)cc2)C1O (stereo not drawn) [Compound 210]
2: zone score, S. aureus ATCC 29213 [1, 5] | zone score, E. faecalis CL 4877 [2, 5] | zone score, S. epidermidis ATCC 12228 [3, 5]

CC1OC(OC2C(Oc3c4cc5cc3Oc3ccc(cc3Cl)C(O)C3NC(=O)C(NC(=O)C5NC(=O)C(CC(N)=O)NC(=O)C(NC(=O)CNC(=O)C(CCC(N)=O)NC(=O)OCc5ccccc5)C(O)c5ccc(c(Cl)c5)O4)c4ccc(O)c(c4)-c4c(O)cc(O)cc4C(C(=O)O)NC3=O)OC(CO)C(O)C2O)CC(C)(NCc2ccc(-c3ccc(Cl)cc3)cc2)C1O (stereo not drawn) [Compound 211]
2: zone score, S. aureus ATCC 29213 [1, 5] | zone score, E. faecalis CL 4877 [2, 5] | zone score, S. epidermidis ATCC 12228 [3, 5]

CC1OC(OC2C(Oc3c4cc5cc3Oc3ccc(cc3Cl)C(O)C3NC(=O)C(NC(=O)C5NC(=O)C(CC(N)=O)NC(=O)C(NC(=O)C(CCC(N)=O)NC(=O)CNC(=O)OCc5ccccc5)C(O)c5ccc(c(Cl)c5)O4)c4ccc(O)c(c4)-c4c(O)cc(O)cc4C(C(=O)O)NC3=O)OC(CO)C(O)C2O)CC(C)(NCc2ccc(-c3ccc(Cl)cc3)cc2)C1O (stereo not drawn) [Compound 212]
2: zone score, S. aureus ATCC 29213 [1, 5] | zone score, E. faecalis CL 4877 [2, 5] | zone score, S. epidermidis ATCC 12228 [3, 5]

Source: patent US6518243B1, “Desleucyl glycopeptide antibiotics and methods of making same” (Trustees of Princeton University, priority 1999, dated 2003)
